Legend:
Bcl-xL = molecular target: T1, Bcl-xL (Homo sapiens, UniProt Q07817); assay: Alpha Screen Bcl-xL binding assay, competition with Bim26-mer; conditions: values listed in the order of Table 1; read-out: Alphascreen results (IC50)
T1 construct: made in house
Experimental: The measurement of competition of compounds of the invention with Bim26-mer for a Bcl-2 family protein binding site using an Alpha Screen Bcl-xL Binding Assay:
The BH3 proteins ALPHASCREEN™ assay was used to identify active small molecules Bcl-2 family protein screen. e.g., Bcl-xL, hmMcl-1 screen. To determine an accurate estimation of the IC50, the compounds were routinely tested at starting concentrations, 100 μM and/or 1 μM and serially titrated 3 fold over 11 dilutions.
The beads come in close proximity when the protein and the peptides interact. Donor beads contain a photosensitiser that converts oxygen to an excited form of O2 at an excitation of 680 nm. Energy is transformed from the singlet oxygen and reacts with chemiluminescers on the acceptor bead, resulting in light emission at 520-620 nm. […] With this information, the IC50 of each compound was calculated
GST-Bcl-xL, GST-hmMcl-1 and biotinylated GST proteins were prepared in-house and were stored as stock solutions at −80° C. The biotinylated-Bak, and biotinylated-Bim peptides were purchased from Auspep and were stored as 500 μM stock solutions in 100% DMSO at −80° C. The ALPHASCREEN™ GST (Glutathione-S-Transferase) Detection Kit was obtained from Perkin Elmer Lifesciences (Cat #6760603R). The Proxiplates, white 384 well flat-Bottom plates were purchased from Interpath Services, Melbourne (Cat #784075). The seals to cover the plates were purchased from Proscience. Melbourne (Cat#784075). DMSO was purchased from AnalaR. The 384 deep well plates and the Polypropylene 50 μL, V bottom polypropylene compound plates were purchased from Matrical.
Compounds of the invention were prepared as 10 mM stocks with 100% DMSO on the day prior to performing the assay. […] To achieve a final compound concentration of 1 μM, in a separate matrical plate, 28 μL of 100% DMSO and 2 μL of 10 mM compound was added to a well, mixed well. 2 μL of this solution was taken and added to 38 μL of 100% DMSO. 20 μL of this solution was added to the test matrical plate. Several control compounds were included in the test plates. For the control wells 15 μL 100% DMSO only was added to the appropriate wells of each plate. The compound plates were then serially diluted 2 fold using the MiniTrak. Once titrations were complete, the compound plate was immediately covered with a foil seal to prevent evaporation.
The assay and bead buffers were prepared fresh. Each titrated compound plate was assayed in duplicate. The following volumes were sufficient to run 12 Proxiplates (4 assay plates run in duplicate in each of Bclxl, hmMcl and counter assays)
Protein and Peptide Preparation; and Assay Performance • 1. The assay and bead buffers were used to prepare the acceptor and donor solutions. ALPHASCREEN™ beads are light sensitive and therefore prepared in a darkened room. 2.5 μL of beads were added per 1 mL of buffer. • 2. The volume of protein or peptide to add was calculated using the following formula:
[formula] • C1=Final Concentration of protein/peptide • C2=Stock Concentration of protein/peptide • V1=Total Volume of Acceptor/Donor Solution • V2=Volume of stock protein/Peptide to add to Acceptor/Donor solution • 3. The assay components were prepared as separate Acceptor and Donor Solutions. The Acceptor Solution contained Acceptor heads and target protein, while the Donor Solution contained Donor beads and biotinylated peptide.
• 4. After the solutions were prepared, they were left to incubate for 30 minutes at room temperature to allow the beads to bind to the protein and the peptide. • 5. 50 μL of Bcl-xL solution, 50 μL of hmMcl-1 solution and 50 µL of biotinylated-GST were added into separate deep wells on an assay plate. A control […]. Assay/Bead buffer was added separate well plates (no protein). • 6.

[1] = test system: Mcl-1-/- mouse embryonic fibroblasts (MEF); assay: Cell viability assay for Mcl-1-/- mouse embryonic fibroblasts (CellTiter-Glo); type: cell-based; conditions: Fibroblast, 1% Fetal Bovine Serum, read-out: MEF Mcl-1-/- KO cell viability results (EC50)
Text: a. Cell Viability Assay for Mcl-1^−/− Mouse Embryonic Fibroblasts (MEF):
Neutralization of both […] and Mcl-1 anti-apoptotic proteins in normal cells is required before a cell undergoes apoptosis via the downstream Bax/Bak pathway See, Chen. L. et al. Mol. Cell (2005) 17, 393-403; Willis, S. N. et al. Genes Dev. (2005) 19, 1294-1305. A compound that only targets Bcl-xL should not affect normal cells, but could kill certain cancer cells if they rely more on Bcl-xL and less on other anti-apoptotic proteins, e.g. Mcl-1, for survival. To mirror this, compounds of the invention were tested for its effect on survival of wild type (wt) mouse embryo fibroblasts (MEFs), Bax/Bak double knockout (BB DKO) MEFs, MEFs that expressed Noxa, and MEFs that expressed Bad. Noxa specifically neutralizes Mcl-1. […] MEFs that express Noxa mirror cancer cell types that are reliant on Bcl-xL for survival and should be much more sensitive to killing by a Bcl-xL targeting compound than MEFs where both Bcl-xL and Mcl-1 are protective.
In this assay, Mcl-1^(−/−) cells were used to confirm that cell apoptosis in the presence of BH3 mimetic small molecules was due to predominantly Bcl-xL inactivation. This inactivation leaves Bax/Bak unconstrained and results in apoptosis. The […]-GLO Luminescent Cell Viability Assay is a homogeneous method of determining the number of viable cells in culture based on quantitation of the ATP present. The amount of ATP correlates with the presence of metabolically active cells such that following cell lysis the amount of ATP present is proportional to the amount of luminescence measured.
Mcl-1^(−/−) mouse embryonic fibroblasts (MEFs) are an adherent cell line prepared in house. MEFs were grown in Iwaki 75 cm^2 tissue culture flasks (cat #3123-075) with FMA media which consists of: • 89% DME Kelso • 10% heat-inactivated foetal calf serum (FCS) (Hyclone cat #SH30396.03) • 1% 10 mM asparagine (Fluka cat #11149) • 275 μl of a 1:2000 dilution of 2-mercaptoethanol is added to the final 500 ml volume of FMA (Sigma cat #M7522; diluted in MT-PBS)
FMA was stored at 4° C. and used at 37° C. MEFs were cultured in FMA media and harvested in MT-PBS and trypsin. For MEF cell viability assays, cells were seeded separately in plates with 10% FCS-FMA and 1% FCS-FMA. […]
Automated Systems that can be used in this assay include: 1) Multidrop—The MULTIDROP 384 (ThermoLabsystems) dispenser was used to dispense cells aseptically into the assay plates: 2) MiniTrak—The […] system from Perkin Elmer was used for titration of the compound plates; 3) Zymark—The ZYMARK SCICLONE ALH3000 System with 100 nL pintool head was used for compound addition to the cells; 4) EnVision—The ENVISION plate reader was used to measure the viability via the detection of the luminescence. […]

T1 sequence (Q07817 whole entry, species assumed): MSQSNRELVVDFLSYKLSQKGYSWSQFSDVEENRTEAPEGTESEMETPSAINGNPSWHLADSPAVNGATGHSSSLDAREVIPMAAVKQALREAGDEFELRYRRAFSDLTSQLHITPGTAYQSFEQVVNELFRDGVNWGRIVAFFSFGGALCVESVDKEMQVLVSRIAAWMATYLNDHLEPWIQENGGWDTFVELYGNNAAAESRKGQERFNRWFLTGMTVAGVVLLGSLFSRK

SMILES | IC50 (Bcl-xL) | EC50 [1]
O=C(O)c1nc(-c2ccc3c(c2)N(C(=O)Nc2nc4ccccc4s2)CCC3)ccc1OCCCc1ccccc1 [Example 90, 6-(1-(benzo[d]thiazol-2-ylcarbamoyl)-1,2,3,4-tetrahydroquinolin-7-yl)-3-(3-phenylpropoxy)picolinic acid] | 10 nM | 590 nM
CC(C)Oc1ccc(-c2sc(-c3ccc4c(c3)N(C(=O)Nc3nc5ccccc5s3)CCC4)nc2C(=O)O)cc1 [Example 79, 2-(1-(benzo[d]thiazol-2-ylcarbamoyl)-1,2,3,4-tetrahydroquinolin-7-yl)-5-(4-isopropoxyphenyl)thiazole-4-carboxylic acid] | 6 nM | 210 nM

Reference: US9067928B2 (Genentech, Inc., priority 2008, dated 2015)
